From the NIST ThermoML archive (doi:10.1021/je100598x)
± gives the expanded uncertainty stated by the source.

Assay: cn = amount concentration of the nth substance listed, in mol/dm3
Conditions: 101 kPa, Liquid, Direct current cell with electrodes

CCCCCCCCCCCC[N+](CCCC)(CCCC)CCCC.[Br-] [dodecyltributylammonium bromide] + O
electrical conductivity [S/m]
Conditions | 288.15 K | 293.15 K | 298.15 K | 303.15 K | 308.15 K | 313.15 K | 318.15 K
c1 = 0.000658 | 0.005218 ± 5.2e-05 | 0.00579 ± 6e-05 | 0.00649 ± 6.5e-05 | 0.007326 ± 7.3e-05 | 0.00785 ± 8e-05 | 0.008542 ± 8.5e-05 | 0.00923 ± 9e-05
c1 = 0.001299 | 0.009805 ± 9.8e-05 | 0.01101 ± 0.00011 | 0.01226 ± 0.00012 | 0.0138 ± 0.0001 | 0.01502 ± 0.00015 | 0.01631 ± 0.00016 | 0.0177 ± 0.0002
c1 = 0.001923 | 0.01419 ± 0.00014 | 0.01604 ± 0.00016 | 0.0179 ± 0.00018 | 0.0201 ± 0.0002 | 0.0218 ± 0.0002 | 0.0238 ± 0.0002 | 0.0258 ± 0.0003
c1 = 0.002532 | 0.01845 ± 0.00018 | 0.0208 ± 0.0002 | 0.0233 ± 0.0002 | 0.0262 ± 0.0003 | 0.0283 ± 0.0003 | 0.0309 ± 0.0003 | 0.0336 ± 0.0003
c1 = 0.003125 | 0.0226 ± 0.0002 | 0.0254 ± 0.0003 | 0.0287 ± 0.0003 | 0.0319 ± 0.0003 | 0.0346 ± 0.0004 | 0.0378 ± 0.0004 | 0.0412 ± 0.0004
c1 = 0.003704 | 0.0265 ± 0.0003 | 0.03 ± 0.0003 | 0.0335 ± 0.0003 | 0.0374 ± 0.0004 | 0.0407 ± 0.0004 | 0.0445 ± 0.0004 | 0.0484 ± 0.0005
c1 = 0.004268 | 0.0303 ± 0.0003 | 0.0341 ± 0.0003 | 0.0383 ± 0.0004 | 0.0427 ± 0.0004 | 0.0465 ± 0.0005 | 0.0509 ± 0.0005 | 0.0551 ± 0.0006
c1 = 0.004819 | 0.034 ± 0.0003 | 0.0384 ± 0.0004 | 0.0429 ± 0.0004 | 0.0476 ± 0.0005 | 0.0517 ± 0.0005 | 0.0566 ± 0.0006 | 0.0619 ± 0.0006
c1 = 0.005357 | 0.0377 ± 0.0004 | 0.0423 ± 0.0004 | 0.0472 ± 0.0005 | 0.052 ± 0.0005 | 0.0567 ± 0.0006 | 0.0619 ± 0.0006 | 0.0672 ± 0.0007
c1 = 0.005882 | 0.041 ± 0.0004 | 0.0459 ± 0.0005 | 0.0508 ± 0.0005 | 0.0554 ± 0.0006 | 0.0599 ± 0.0006 | 0.0658 ± 0.0007 | 0.0712 ± 0.0007
c1 = 0.006395 | 0.0441 ± 0.0004 | 0.0487 ± 0.0005 | 0.0532 ± 0.0005 | 0.0578 ± 0.0006 | 0.0629 ± 0.0006 | 0.069 ± 0.0007 | 0.0752 ± 0.0008
c1 = 0.006896 | 0.0466 ± 0.0005 | 0.0509 ± 0.0005 | 0.0556 ± 0.0006 | 0.0601 ± 0.0006 | 0.0658 ± 0.0007 | 0.072 ± 0.0007 | 0.0785 ± 0.0008
c1 = 0.007386 | 0.0485 ± 0.0005 | 0.0524 ± 0.0005 | 0.0575 ± 0.0006 | 0.0626 ± 0.0006 | 0.0678 ± 0.0007 | 0.0747 ± 0.0007 | 0.0817 ± 0.0008
c1 = 0.007865 | 0.05 ± 0.0005 | 0.0542 ± 0.0005 | 0.059 ± 0.0006 | 0.0647 ± 0.0006 | 0.0706 ± 0.0007 | 0.0773 ± 0.0008 | 0.0845 ± 0.0008
c1 = 0.008333 | 0.0513 ± 0.0005 | 0.0554 ± 0.0006 | 0.061 ± 0.0006 | 0.0666 ± 0.0007 | 0.0728 ± 0.0007 | 0.0798 ± 0.0008 | 0.0874 ± 0.0009
c1 = 0.008791 | 0.0523 ± 0.0005 | 0.0568 ± 0.0006 | 0.0622 ± 0.0006 | 0.0685 ± 0.0007 | 0.0749 ± 0.0008 | 0.0822 ± 0.0008 | 0.09 ± 0.0009
c1 = 0.009239 | 0.0537 ± 0.0005 | 0.0582 ± 0.0006 | 0.0641 ± 0.0006 | 0.0703 ± 0.0007 | 0.077 ± 0.0008 | 0.0845 ± 0.0008 | 0.0926 ± 0.0009
c1 = 0.009677 | 0.0548 ± 0.0006 | 0.0598 ± 0.0006 | 0.0652 ± 0.0007 | 0.0721 ± 0.0007 | 0.0789 ± 0.0008 | 0.0867 ± 0.0009 | 0.0952 ± 0.001
c1 = 0.01011 | 0.0556 ± 0.0006 | 0.061 ± 0.0006 | 0.0671 ± 0.0007 | 0.0737 ± 0.0007 | 0.0804 ± 0.0008 | 0.0889 ± 0.0009 | 0.0976 ± 0.001
c1 = 0.01053 | 0.0572 ± 0.0006 | 0.0623 ± 0.0006 | 0.0686 ± 0.0007 | 0.0757 ± 0.0008 | 0.0829 ± 0.0008 | 0.0913 ± 0.0009 | 0.1003 ± 0.001
c1 = 0.01094 | 0.0583 ± 0.0006 | 0.0636 ± 0.0006 | 0.0701 ± 0.0007 | 0.0774 ± 0.0008 | 0.0849 ± 0.0009 | 0.0935 ± 0.0009 | 0.1028 ± 0.001
c1 = 0.01134 | 0.0594 ± 0.0006 | 0.0649 ± 0.0007 | 0.0716 ± 0.0007 | 0.0791 ± 0.0008 | 0.0868 ± 0.0009 | 0.0957 ± 0.001 | 0.105 ± 0.0011
c1 = 0.01174 | 0.0605 ± 0.0006 | 0.0661 ± 0.0007 | 0.073 ± 0.0007 | 0.0807 ± 0.0008 | 0.0887 ± 0.0009 | 0.0978 ± 0.001 | 0.108 ± 0.0011
c1 = 0.01212 | 0.0615 ± 0.0006 | 0.0673 ± 0.0007 | 0.0744 ± 0.0007 | 0.0824 ± 0.0008 | 0.0905 ± 0.0009 | 0.0998 ± 0.001 | 0.11 ± 0.0011
c1 = 0.0125 | 0.0626 ± 0.0006 | 0.0685 ± 0.0007 | 0.0758 ± 0.0008 | 0.084 ± 0.0008 | 0.0923 ± 0.0009 | 0.1019 ± 0.001 | 0.1122 ± 0.0011
